The text below walks through data of patent US5849735A, “Tricyclic benzazepine vasopressin antagonists” (American Cyanamid Company, priority 1995, dated 1998).

Molecules are shown by their SMILES.

The target in experiment [1] is T1, vasopressin V2 receptor (rat kidney medullary) (Rattus norvegicus, UniProt Q00788).
T1 construct: Medullary tissues from rat kidneys are dissected out; from tissue; host or cells: rat kidney medulla membranes
As to the kind of experiment: Binding Assay to Rat Kidney Medullary V2 Receptors. As to conditions: for inhibition at 10 µM: rat kidney V2. Here is the method: Binding Assay to Rat Kidney Medullary V2 Receptors
Medullary tissues from rat kidneys are dissected out, cut into small pieces and soaked in a […] sodium chloride solution containing 1.0 mM EDTA with many changes of the liquid phase, until the solution is clear of blood. […] The tissue is homogenized in a 0.25M sucrose solution containing 1.0 mM EDTA and 0.1 mM PMSF using a Potter-Elvehjem homogenizer with a teflon pestle. The homogenate is filtered through several layers (4 layers) of cheese cloth. The filtrate is rehomogenized using a dounce homogenizer, with a tight fitting pestle. The final homogenate is centrifuged at 1500×g for 15 min. The nuclear pellet is discarded and the supernatant fluid recentrifuged at 40,000×g for 30 min. The resulting pellet formed contains a dark inner part with the exterior, slightly pink. The pink outer part is suspended in a small amount of 50.0 mM Tris.HCl buffer, pH 7.4. The protein content is determined by the Lowry's method (Lowry et al., J. Biol. Chem., 1953). The membrane suspension is stored at -70° C., in 50.0 mM Tris.HCl, containing 0.2% inactivated BSA and 0.1 mM PMSF in aliquots of 1.0 ml containing 10.0 mg protein per ml of suspension until sue in subsequent binding experiments.
For binding experiments, the following is added in ml volume to wells of a 96 well format of a microtiter plate: 100.0 ml of 100.0 mM Tris.HCl buffer containing 0.2% heat inactivated BSA, 10.0 mM MgCL2 and a mixture of protease inhibitors: leupeptin, 1.0 mg %; aprotinin, 1.0 mg % 1,10-phenanthroline, 2.0 mg %; trypsin inhibitor, and 0.1 mM PMSF, 20.0 ml of [^3 H] Arginine^8, vasopressin (S.A. 75.0 Ci/mmole) at 0.8 nM and the reaction initiated by the addition of 80.0 ml of tissue membranes (200.0 mg tissue protein). The plates are left undisturbed on the bench top for 120 minutes to reach equilibrium. Non-specific binding is assessed in the presence of 1.0 mM of unlabeled ligand, added in 20 ml volume. For test compounds, these are solubilized in 50% dimethylsulfoxide (DMSO) and added in 20.0 ml volume to a final incubation volume of […]. Upon completion of binding, the content of each well is filtered off, using a Brandel® cell Harvester (Gaithersburg, Md.). The radioactivity trapped on the filter disk by the ligand-receptor complex is assessed by liquid scintillation counting in a Parkard LS Counter, with an efficiency of 65% for tritium.

Experiment [2] addresses T2, vasopressin V1 receptor (rat liver plasma membranes) (Rattus norvegicus, UniProt P30560).
T2 construct: Rat liver plasma membranes expressing the vasopressin V1 receptor subtypes; from tissue; host or cells: rat liver plasma membranes
As to the kind of experiment: Binding Assay to Rat Hepatic V1 Receptors. Here is the method: Binding Assay to Rat Hepatic V1 Receptors
Rat liver plasma membranes expressing the vasopressin V1 receptor subtypes are isolated by sucrose density gradient according to the method described by Lesko et al., (1973). These membranes are quickly suspended in 50.0 mM Tris.HCl buffer, pH 7.4, containing 0.2% bovine serum albumin (BSA) and 0.1 mM phenylmethylsulfonylfluoride (PMSF) and kept frozen at -70° C. until used in subsequent binding experiments. For binding experiments, the following is added to the wells of a ninety-six well format microtiter plate: […] of […] buffer containing 10.0 mM MgCl2, 0.2% heat inactivated BSA and a mixture of protease inhibitors: leupeptin, 1.0 mg %; aprotinin, 1.0 mg %; 1,10-phenanthroline,2.0 mg %; trypsin inhibitor, 10.0 mg % and 0.1 mM PMSF, 20.0 ml of [phenylalanyl-3,4,5, -^3 H] vasopressin (S.A. 45.1 Ci/mmole) […], and the reaction initiated by the addition of 80 ml of tissue membranes containing 20 mg of tissue protein. The plates are kept undisturbed on the bench top at room temperature for 120 min. to reach equilibrium. Non-specific samples are assayed in the presence of 0.1 mM of the unlabeled […] phenylalanylvasopressin, added in 20.0 ml volume.
For test compounds, these are solubilized in 50% dimethylsulfoxide (DMSO) and added in 20.0 ml volume to a final incubation volume of […]. Upon completion of binding, the content of each well is filtered off, using a Brandel® cell Harvester (Gaithersburg, Md.). The radioactivity trapped on the filter disk by the ligand-receptor complex is assessed by liquid scintillation counting in a Packard LS Counter, with an efficiency of 65% for tritium.

T2 sequence (P30560 whole entry): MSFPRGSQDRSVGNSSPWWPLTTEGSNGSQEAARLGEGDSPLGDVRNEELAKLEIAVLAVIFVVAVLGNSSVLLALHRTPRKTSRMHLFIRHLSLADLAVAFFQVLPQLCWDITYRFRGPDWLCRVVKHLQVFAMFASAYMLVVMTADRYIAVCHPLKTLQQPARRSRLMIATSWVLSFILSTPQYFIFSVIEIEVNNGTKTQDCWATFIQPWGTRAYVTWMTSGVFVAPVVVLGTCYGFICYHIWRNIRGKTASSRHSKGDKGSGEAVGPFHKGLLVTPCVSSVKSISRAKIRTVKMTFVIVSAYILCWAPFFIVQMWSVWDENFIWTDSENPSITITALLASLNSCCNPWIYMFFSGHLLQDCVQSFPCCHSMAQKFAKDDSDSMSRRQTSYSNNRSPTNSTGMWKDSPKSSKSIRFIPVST
T1 sequence (Q00788 whole entry): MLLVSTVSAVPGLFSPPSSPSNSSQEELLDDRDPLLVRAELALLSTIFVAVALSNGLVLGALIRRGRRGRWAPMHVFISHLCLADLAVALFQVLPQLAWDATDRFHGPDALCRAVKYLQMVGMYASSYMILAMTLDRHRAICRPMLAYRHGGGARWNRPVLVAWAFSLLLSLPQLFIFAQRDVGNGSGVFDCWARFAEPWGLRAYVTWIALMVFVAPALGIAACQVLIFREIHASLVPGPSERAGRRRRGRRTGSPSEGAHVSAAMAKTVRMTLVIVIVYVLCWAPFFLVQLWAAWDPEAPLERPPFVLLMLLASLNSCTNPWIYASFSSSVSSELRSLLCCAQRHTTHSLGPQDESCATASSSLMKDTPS

For `Cc1ccc(F)cc1C(=O)Nc1ccc(C(=O)N2Cc3sccc3Cc3ccccc32)cn1` [Example 2, N-[5-[(9,10-Dihydro-4H-thieno[2,3-c][1]benzazepin-9-yl)carbonyl]-2-pyridinyl]-5-fluoro-2-methylbenzamide], the IC50 in experiment [1] (rat kidney medullary V2 receptors) is 0.029 µM; in experiment [2] (rat hepatic V1 receptors), 0.059 µM.

Consider `Cc1ccc(F)cc1C(=O)Nc1ccc(C(=O)N2Cc3ccccc3Oc3ncccc32)cn1` [Example 4, N-[5-(Pyrido[2,3-b][1,4]benzoxazepin-5(6H)-ylcarbonyl)-2-pyridinyl]-5-fluoro-2-methylbenzamide], for which the inhibition at 10 µM in experiment [1] is 20%; in experiment [2] (2 h, rat hepatic V1) it was 44%.

In experiment [1], `O=C(c1ccc(-c2ccccc2)cc1)N1Cc2ccccc2Oc2ccccc21` [Example 26, 10-([1,1'-Biphenyl]-4-ylcarbonyl)-10,11-dihydrodibenz[b,f][1,4]oxazepine] gave an inhibition at 10 µM of 29%. For the same molecule, the inhibition at 1 µM in experiment [2] (2 h, rat hepatic V1, at 1 μM) came to 46%.

On to `O=C(c1ccccc1)c1ccc(C(=O)N2Cc3ccccc3Oc3ccccc32)cc1` [Example 32, 10-(4-Benzoylbenzoyl)-10,11-dihydrodibenz[b,f][1,4]oxazepine], for which the inhibition at 10 µM in experiment [1] was 33%; in experiment [2] (2 h, rat hepatic V1), 53%.

In the case of `Cc1ccc(F)cc1C(=O)Nc1ccc(C(=O)N2Cc3ccccc3CCc3ccccc32)cn1` [Example 45], the inhibition at 10 µM stood at 62% in experiment [1] and 34% in experiment [2] (2 h, rat hepatic V1).

By IC50 is commonly meant the concentration that inhibits the measured activity by half. A higher IC50 goes with weaker potency. Usually inhibition stands for the change of the read-out against control, counted positive when it falls.
